In PubChem BioAssay (NCI):
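Interpolation was linear, between the two tested concentrations surrounding the appropriate level; five concentrations were tested over 48 hours in 96-well plates. The concentration for 50% growth inhibition is given as GI50. TGI: concentration producing complete growth inhibition.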

Experiments:
Test in all cases: NCI tumour cell line growth inhibition, 48 h
SK-MEL-2 melanoma = system: SK-MEL-2 melanoma
SF-295 CNS = system: SF-295 CNS
OVCAR-3 ovarian = system: OVCAR-3 ovarian
MOLT-4 leukemia = system: MOLT-4 leukemia
ACHN renal = system: ACHN renal
UO-31 renal = system: UO-31 renal
LOX IMVI melanoma = system: LOX IMVI melanoma
NCI-H226 lung = system: NCI-H226 lung
CAKI-1 renal = system: CAKI-1 renal
T-47D breast = system: T-47D breast

Row | SMILES | TGI (SK-MEL-2 melanoma) [µM] | TGI (SF-295 CNS) [µM] | TGI (OVCAR-3 ovarian) [µM] | TGI (MOLT-4 leukemia) [µM] | TGI (ACHN renal) [µM] | TGI (UO-31 renal) [µM] | TGI (LOX IMVI melanoma) [µM] | TGI (NCI-H226 lung) [µM] | TGI (CAKI-1 renal) [µM] | GI50 (SK-MEL-2 melanoma) [µM] | GI50 (SF-295 CNS) [µM] | GI50 (OVCAR-3 ovarian) [µM] | GI50 (MOLT-4 leukemia) [µM] | GI50 (ACHN renal) [µM] | GI50 (UO-31 renal) [µM] | GI50 (LOX IMVI melanoma) [µM] | GI50 (NCI-H226 lung) [µM] | GI50 (CAKI-1 renal) [µM] | GI50 (T-47D breast) [µM] | TGI (T-47D breast) [µM]
1 | O=c1cccccc1[O-].O=c1cccccc1[O-].O=c1cccccc1[O-].[Sm+3] | > 100 | > 100 | 47 | > 100 | > 100 | > 100 | > 100 | > 100 | > 100 | – | – | – | – | – | – | – | – | – | – | –
2 | [Cl-].[Gd+3].[O-]/N=C(\c1ccccc1)c1ccccn1.[O-]/N=C(\c1ccccc1)c1ccccn1.[O-]/N=C(\c1ccccc1)c1ccccn1 | 78.5 | > 100 | 79.5 | > 100 | > 100 | > 100 | 76.5 | > 100 | > 100 | 27.1 | 36.6 | 21.3 | 40.5 | 64.3 | 35.3 | 28.5 | 40.4 | 42.3 | – | –
3 | COc1ccc(Cc2nc3cc(OC)c(OC)cc3c(=O)[nH]2)cc1 | – | > 26.9 | > 66.1 | > 59.6 | > 100 | > 100 | > 100 | > 100 | > 93.4 | – | 5.21 | 12.5 | 5.36 | 9.14 | 4.66 | 10.9 | 9.2 | 6.64 | 21.5 | > 100
4 | OCC(O)C(O)C(O)C(O)c1nn[nH]n1 (centres undefined) | > 100 | > 100 | > 100 | > 100 | > 100 | > 100 | > 100 | > 100 | > 100 | – | – | – | – | – | – | – | – | – | – | –
5 | COc1ccc(OCC(O)CN2CCN(c3ccc(Cl)cc3)CC2)cc1 (centres undefined) | > 100 | > 100 | > 100 | > 100 | > 100 | – | > 100 | > 100 | > 100 | > 100 | > 100 | > 100 | > 100 | 65.9 | – | > 100 | 37.9 | 8.86 | > 100 | > 100
6 | NC(=O)c1ncn(C2OC(CO)C(O)C2O)c1N (centres undefined) | > 100 | > 100 | > 100 | – | > 100 | > 100 | > 100 | > 100 | > 100 | > 100 | > 100 | > 100 | – | > 100 | > 100 | > 100 | > 100 | > 100 | > 100 | > 100
7 | COC(=O)[C@]1(C)CCC[C@]2(C)[C@@H]1CCC13C[C@@H](C=CO1)[C@@H](C)CC32O (some centres undefined) | > 100 | 88.7 | 46.8 | > 100 | > 100 | > 100 | > 100 | > 100 | > 100 | > 100 | 27.5 | 17.8 | 24.5 | > 100 | > 100 | > 100 | > 100 | 55.2 | – | –
8 | COC(=O)C1CCC(=O)N1/C(C)=N/NC(=O)Nc1ccc(Cl)c(Cl)c1 (centres undefined) | > 100 | > 100 | > 100 | > 100 | > 100 | > 100 | > 100 | – | > 100 | – | – | – | – | – | – | – | – | – | – | –
9 | c1cncc(C2ONC3=NCCN32)c1 (centres undefined) | > 100 | > 100 | 27.8 | 56.6 | 38.3 | > 100 | – | 68.7 | 42.2 | 68.8 | 33.3 | 2.86 | 28.4 | 8 | 2.27 | – | 20 | 8.92 | 40 | > 100
10 | Clc1ccc2c(NCCCN3CCN(c4nc(N5CCOCC5)nc5ccccc45)CC3)ccnc2c1 | 3.49 | – | 4.77 | 3.9 | – | – | 3.97 | – | – | 1.87 | – | 2.15 | 1.36 | – | – | 1.98 | – | – | 2.32 | 5.09
11 | O=C(/C=C(\[O-])c1ccccc1)CCCCCCC(=O)/C=C(\[O-])c1ccccc1.O=C(/C=C(\[O-])c1ccccc1)CCCCCCC(=O)/C=C(\[O-])c1ccccc1.O=C(/C=C(\[O-])c1ccccc1)CCCCCCC(=O)/C=C(\[O-])c1ccccc1.[Nd+3].[Nd+3] | > 50 | > 50 | > 50 | > 50 | > 50 | > 50 | > 50 | > 50 | > 50 | > 50 | 40.2 | > 50 | 27.5 | > 50 | > 50 | > 50 | > 50 | > 50 | – | –
12 | COc1ccc(-c2cc(-c3ccccc3)nc(NCCNc3ccnc4cc(Cl)ccc34)n2)cc1 | 3.43 | 3.49 | 3.39 | – | 3.16 | 2.93 | 3.26 | 4.56 | 2.96 | 1.84 | 1.8 | 1.82 | – | 1.7 | 1.42 | 1.55 | 1.96 | 1.57 | 0.812 | 2.61
13 | COc1ccc(C(=O)O/N=C2/CCCCC2CN(C)C)cc1 (centres undefined) | > 100 | > 100 | > 100 | > 100 | > 100 | > 100 | > 100 | > 100 | > 100 | – | – | – | – | – | – | – | – | – | – | –
14 | CC(=O)[O-].[Mn+3].[O-]c1ccc(Cl)cc1C=NCCN=Cc1cc(Cl)ccc1[O-] | > 100 | > 100 | > 100 | > 100 | > 100 | > 100 | > 100 | > 100 | – | > 100 | > 100 | 37.6 | > 100 | > 100 | > 100 | 38.6 | > 100 | – | – | –
15 | COc1ccc2c(c1)[n+](=O)c(C(C)=O)c(C)n2[O-] | > 100 | > 100 | > 100 | > 100 | > 100 | > 100 | > 100 | > 100 | > 100 | – | – | – | – | – | – | – | – | – | – | –
